The results in this text go back to patent US20240423973A1, “COMPOUNDS, PHARMACEUTICAL COMPOSITIONS, AND METHODS FOR THE TREATMENT, PREVENTION, OR MANAGEMENT OF HYPERPROLIFERATIVE DISORDERS” (VINCERX PHARMA GMBH, priority 2021, published 2024).

For one data set, the system named is avb3. The experiment in a line: EC50 [nM]. From the text: Table printed on a drawing sheet, FIG. 4
Head of the field: EC50 [nM]
The patent's description of the figure: FIG. 4: avb3 binding of selected examples and EC50 values
First copying reader's note: EC50 values relate to the αvβ3 binding assay plotted next to the table; R^2 is the goodness of fit of the curve.
Where the first naming reader finds the target: description_of_the_figure: FIG. 4: avb3 binding of selected examples and EC50 values

Data set [1] is described as follows: Compound stability in rat plasma. Format: in vitro ADME. To be noted: rat plasma at 37° C., 4-hour assay; for ester cleavage in rat plasma: detected by LC-MS. As for the experimental part:
(§1) Compound B1, Compound C2, and Compound C3 were evaluated for stability in plasma and/or buffer. Compound B1 was stable in rat plasma at 37° C. (FIG. 1 panel (a)) and in buffer at pH 7.4 (FIG. 1 panel (b)) for the duration of the 4-hour assay.
Method for measurement of stability in rat and human plasma: 1 mg of the test compound is dissolved in 0.5 ml acetonitrile/dimethylsulfoxide 1:1. For complete dissolution the HPLC vial is shaken and sonicated. While vortexing 20 μl of this solution are added to 1 ml 37° C. warm plasma. After 0.17, 0.5, 1, 1.5, 2 and 4 hours the enzymatic reaction is stopped by adding 100 μl of the compound plasma solution to a vial containing 300 μl acetonitrile/buffer pH3 (80:20) at RT. The mixture is centrifuged at 5000 rpm for 10 minutes. The supernatant is analyzed by HPLC to determine the amount of the test compound and up to two byproducts. To values result from a processed sample immediately taken after vortexing with plasma at RT. The peak areas (in percentage) are used for quantification. All data is given as percent area of the initial compound at to.

The test system of data set [2] is SUM149. The experiment in a line: Cytotoxicity in vitro in the presence and absence of elastase (MTT assay). It is filed as cell-based. To be noted: SUM149 cells, 72 h. The method in brief: (§2)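 24 h post-seed → fresh medium → cpd 10^−5 to 10^−13 M (n=3) ± elastase 10 nM → 72 h 37 °C/5% CO2 → MTT 4 h → overnight lysis → A570; untreated = reference.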
The test system of data set [3] is NCI H292. The description is as above. It is filed as cell-based, human. The note with it: NCI H292 cells, 72 h. The method in brief:
as §2

The subject of data set [4] is 786-O. Described as above. It is filed as cell-based, human. To be noted: 786-O cells, 72 h. The method in brief: as §2
For data set [5], the system named is HT29. The description is as above. It is filed as cell-based, human. The note with it: HT29 cells, 72 h. The method in brief:
as §2

Data set [6] is described as follows: Compound stability in buffer. Format: physicochemical. To be noted: for release of free payload in buffer: buffer at pH 4, within 24 hours. As for the experimental part: as §1
Method for measurement of stability in buffer: 0.15 mg of the test compound are solved in 0.1 ml dimethylsulfoxide and 0.4 ml acetonitrile. For complete dissolution the HPLC vial with the sample solution is shaken and sonicated. Then 1.0 ml of the respective buffer solution is added, and the sample is vortexed. The sample solution is analysed by HPLC to determine the amount of the test compound and up to two byproducts at a particular time over a period of 24 h at 37° C. to values result from a sample immediately taken after vortexing with buffer at RT. The peak areas (in percentage) are used for quantification.

Data set [7] has as its system NCI H292. The experiment in a line: Cytotoxicity assay (Version 2), automated, AC50. Format: cell-based, human. To be noted: NCI H292 cells, Version 2, activity concentration at -50%, 4 parameter Hill-fit. The protocol:
(§3) Cultivation of cells was performed according to standard procedures with the media recommended by the provider. The cells, in a total volume of 100 μL, were seeded in a 96-well plate with a white bottom (#3610). After a 24 h incubation period at 37° C. and 5% CO2, the medium was exchanged by adding 90 μL fresh medium. The treatment started by adding the test compound in 10 μL of culture medium to the cells in triplicates. Concentrations ranging from 10^−5 M to 10^−13 M were chosen. Two identically treated sets of samples were prepared. One set was treated with the test compound alone, whereas to the second set the compound and 10 nM elastase was added followed by a 72 h incubation period at 37° C. and 5% CO2. The proliferation was detected using the MTT assay (ATCC). At the end of the incubation period the MTT reagent was added to all samples for 4h. Lysis of the cells followed by addition of the detergent was done overnight. The formed dye was detected at 570 nm. The proliferation of untreated but otherwise identically handled cells was define as the […].
(§4) The Cytotoxicity assay (Version 2) was performed as above described. Some changes were applied as the assays were performed in an automated fashion and the IC50 values determination was changed. Here the change in metabolic activity of the cells, in percent, was calculated by normalization of the measured values to the absorbance values of medium containing wells without cells (=−100% ) and the absorbance of the DMSO-treated cells (=0% ). AC50 values (activity concentration at -50% o) were determined by means of a 4 parameter Hill-fit using GeneData Screener software.

Data set [8] deals with 786-O. The experiment in a line: Cytotoxicity assay (Version 2), automated, AC50. To be noted: 786-O cells, Version 2, activity concentration at -50%, 4 parameter Hill-fit. It is filed as cell-based, human. As for the experimental part:
as §3, §4

In data set [9] the test system is HT29. The experiment in a line: Cytotoxicity assay (Version 2), automated, AC50. It is filed as cell-based, human. To be noted: HT29 cells, Version 2, activity concentration at -50%, 4 parameter Hill-fit. As for the experimental part:
as §3, §4

For data set [10], the system named is SUM149. The experiment in a line: Cytotoxicity assay (Version 2), automated, AC50. Format: cell-based. To be noted: SUM149 cells, Version 2, activity concentration at -50%, 4 parameter Hill-fit. The protocol:
as §3, §4

For orientation: EC50 means the concentration giving half of the maximal effect. In the data set on avb3, `CCCNC(=O)Nc1cccc(S(=O)(=O)Nc2cccc(C(CC(=O)O)NC(=O)Nc3ccc(NC(=O)NCCOCCOCCOCCC(=O)NCCCCC(NC(=O)CCOCCOCCOCCNC(=O)Nc4ccc(NC(=O)NC(CC(=O)O)c5cccc(NS(=O)(=O)c6cccc(NC(=O)NCCC)c6)c5)cc4)C(=O)NCCOCCOCCOCCC(=O)NC(CC(=O)O)C(=O)N4CCCC4C(=O)NC(C(=O)OC4(CC)C(=O)OCc5c4cc4n(c5=O)Cc5c-4nc4ccccc4c5CC)C(C)C)cc3)c2)c1` (stereo not drawn) [Compound A3] showed an EC50 of 55 nM.
A word on the IC50: it is the concentration that gives 50% inhibition. On to `CCCNC(=O)Nc1cccc(S(=O)(=O)Nc2cccc([C@@H](CC(=O)O)NC(=O)Nc3ccc(NC(=O)N(C)CCN(C)CCN(C)CC(=O)N[C@@H](CC(N)=O)C(=O)N4CCC[C@H]4C(=O)N[C@H](C(=O)O[C@]4(CC)C(=O)OCc5c4cc4n(c5=O)Cc5c-4nc4ccccc4c5CC)C(C)C)cc3)c2)c1` [Compound B1, (4S)-4,11-diethyl-3,14-dioxo-3,4,12,14-tetrahydro-1H-pyrano[3′,4′:6,7]indolizino[1,2-b]quinolin-4-yl N-{2-[{2-[({4-[({(1R)-2-carboxy-1-[3-({3-[(propylcarbamoyl)amino]benzene-1-sulfonyl}amino)phenyl]ethyl}carbamoyl)amino]phenyl}carbamoyl)(methyl)amino]ethyl} (methyl)amino]ethyl}-N-methylglycyl-L-asparaginyl-L-prolyl-L-valinate], for which, in data set [1], the “stability in rat plasma” value was “stable”. In addition, the IC50 in the data set on SUM149 [2] (compound alone (no elastase)) fell in the range of 10 to 100 nM; in the data set with SUM149 [2] (with 10 nM elastase) it was 0.01 to 0.1 nM; with NCI H292 [3] (compound alone (no elastase)), 10 to 100 nM; in the data set with NCI H292 [3] (with 10 nM elastase), 0.1 to 1 nM; in the data set on 786-O [4] (compound alone (no elastase)), 10 to 100 nM; with 786-O [4] (with 10 nM elastase), 0.1 to 1 nM. The IC50 in the data set on HT29 [5] (compound alone (no elastase)) is over 100 nM; with HT29 [5] (with 10 nM elastase) it was 0.1 to 1 nM. Further, the “stability in buffer at pH 7.4” value in data set [6] (buffer pH 7.4, 4-hour assay) is “stable”.
Take `CCCNC(=O)Nc1cccc(S(=O)(=O)Nc2cccc([C@@H](CC(=O)O)NC(=O)Nc3ccc(NC(=O)NCCOCCOCCOCCC(=O)N[C@@H](CC(=O)OCCCN(C)C)C(=O)N4CCC[C@H]4C(=O)N[C@H](C(=O)O[C@]4(CC)C(=O)OCc5c4cc4n(c5=O)Cc5c-4nc4ccccc4c5CC)C(C)C)cc3)c2)c1` [Compound C2, (3R)-3-[({4-[({(9S)-9-[(2S)-2-{[(2S)-1-{[(4S)-4,11-diethyl-3,14-dioxo-3,4,12,14-tetrahydro-1H-pyrano[3′,4′:6,7]indolizino[1,2-b]quinolin-4-yl]oxy}-3-methyl-1-oxobutan-2-yl]carbamoyl}pyrrolidine-1-carbonyl]-2-methyl-7,11-dioxo-6,14,17,20-tetraoxa-2,10-diazadocosan-22-yl}carbamoyl)amino]phenyl}carbamoyl)amino]-3-[3-({3-[(propylcarbamoyl)amino]benzene-1-sulfonyl}amino)phenyl]propanoic acid]: the “ester cleavage in rat plasma” value in [1] was “slow ester cleavage and release of the aspartate moiety”. For the same compound, the IC50 lay in the range of 0.1 to 1 nM in the data set on SUM149 [2] (compound alone (no elastase)); 0.01 to 0.1 nM with SUM149 [2] (with 10 nM elastase); 10 to 100 nM with NCI H292 [3] (compound alone (no elastase)); 0.1 to 1 nM with NCI H292 [3] (with 10 nM elastase); 10 to 100 nM with 786-O [4] (compound alone (no elastase)); 0.1 to 1 nM in the data set on 786-O [4] (with 10 nM elastase). Further, the IC50 with HT29 [5] (compound alone (no elastase)) was in the range of 1.1 to 10 nM; with HT29 [5] (with 10 nM elastase), 0.1 to 1 nM. Moreover, the “release of free payload in buffer” value in data set [6] is “No release of free payload is detected”.
Turning to `CCCNC(=O)Nc1cccc(S(=O)(=O)Nc2cccc([C@@H](CC(=O)O)NC(=O)Nc3ccc(NC(=O)NCCOCCOCCOCCC(=O)N[C@@H](CC(=O)OCCCCN(C)C)C(=O)N4CCC[C@H]4C(=O)N[C@H](C(=O)O[C@]4(CC)C(=O)OCc5c4cc4n(c5=O)Cc5c-4nc4ccccc4c5CC)C(C)C)cc3)c2)c1` [Compound C3, (3R)-3-[({4-[({(10S)-10-[(2S)-2-{[(2S)-1-{[(4S)-4,11-Diethyl-3,14-dioxo-3,4,12,14-tetrahydro-1H-pyrano[3′,4′:6,7]indolizino[1,2-b]quinolin-4-yl]oxy}-3-methyl-1-oxobutan-2-yl]carbamoyl}pyrrolidine-1-carbonyl]-2-methyl-8,12-dioxo-7,15,18,21-tetraoxa-2,11-diazatricosan-23-yl}carbamoyl)amino]phenyl}carbamoyl)amino]-3-[3-({3-[(propylcarbamoyl)amino]benzene-1-sulfonyl}amino)phenyl]propanoic acid], in data set [1], the “ester cleavage in rat plasma” value was “slow ester cleavage and release of the aspartate moiety”. For the same compound, the half-maximal inhibitory concentration (IC50) fell in the range of 1.1 to 10 nM with SUM149 [2] (compound alone (no elastase)); 0.01 to 0.1 nM in the data set on SUM149 [2] (with 10 nM elastase); 10 to 100 nM in the data set on NCI H292 [3] (compound alone (no elastase)); 0.1 to 1 nM with NCI H292 [3] (with 10 nM elastase); 10 to 100 nM in the data set on 786-O [4] (compound alone (no elastase)); 0.1 to 1 nM with 786-O [4] (with 10 nM elastase). Further, the figures for the IC50 in the data set on HT29 [5] (compound alone (no elastase)) and in the data set on HT29 [5] (with 10 nM elastase) were 10 to 100 nM and 0.1 to 1 nM, respectively. Moreover, in data set [6], the “release of free payload in buffer” value is given as “No release of free payload is detected”.
The term AC50 denotes the concentration at which the activity in the assay is half-maximal. Low values mean activity at low concentration, high ones activity only at high concentration. On to `CCCNC(=O)Nc1cccc(S(=O)(=O)Nc2cccc([C@@H](CC(=O)O)NC(=O)Nc3ccc(NC(=O)NCCOCCOCCOCCC(=O)N[C@@H](CCCCNC(=O)CCCC(=O)N(C)CC(=O)N(C)CC(=O)N(C)CC(=O)N(C)CC(=O)N(C)CC(=O)N(C)CC(=O)N(C)CC(=O)N(C)CC(=O)O)C(=O)NCCOCCOCCOCCC(=O)N[C@@H](CC(=O)O)C(=O)N4CCC[C@H]4C(=O)N[C@H](C(=O)O[C@]4(CC)C(=O)OCc5c4cc4n(c5=O)Cc5c-4nc4ccccc4c5CC)C(C)C)cc3)c2)c1` [Compound E4], for which the AC50 with NCI H292 [7] (no elastase) is 110 to 1000 nM; with NCI H292 [7] (with elastase), at most 10 nM; in the data set with 786-O [8] (no elastase), 110 to 1000 nM; in the data set with 786-O [8] (with elastase), at most 10 nM; in the data set with HT29 [9] (no elastase), 110 to 1000 nM; in the data set with HT29 [9] (with elastase) it was 11 to 100 nM. The AC50 in the data set on SUM149 [10] (no elastase) is 110 to 1000 nM; with SUM149 [10] (with elastase) it was at most 10 nM.
